Experimental data as given in patent publication US7049289B1, “Labelled glutamine and lysine analogues” (Amersham PLC, priority 1998, dated 2006).
*1 amine or outer side, *2 acyl side, *3 side chain or, on linkers, in order; H or OH if unused. Glutaryl = O=C(CCCC(=O)[*:2])[*:1]; code Z = not defined here

Legend:
[1] = biological target: T1, fibrin (in vitro human plasma clot) (Homo sapiens, UniProt P02671+P02675+P02679); assay: Incorporation into human plasma clots in vitro; format: biochemical; details: for % specific uptake: % retained (with thrombin) - % retained (no thrombin); for % retained (no thrombin): control without thrombin and calcium chloride (non-specific binding); for % retained (with thrombin): human plasma clot, 60 minutes, ca. 20° C.
T1 construct: about 400 μl of human plasma containing the radiolabelled substrate; from tissue; host or cells: human plasma, clotted in vitro with added thrombin and calcium chloride
T1 sequence (P02671 20-644 isoform P02671-2 limits assumed): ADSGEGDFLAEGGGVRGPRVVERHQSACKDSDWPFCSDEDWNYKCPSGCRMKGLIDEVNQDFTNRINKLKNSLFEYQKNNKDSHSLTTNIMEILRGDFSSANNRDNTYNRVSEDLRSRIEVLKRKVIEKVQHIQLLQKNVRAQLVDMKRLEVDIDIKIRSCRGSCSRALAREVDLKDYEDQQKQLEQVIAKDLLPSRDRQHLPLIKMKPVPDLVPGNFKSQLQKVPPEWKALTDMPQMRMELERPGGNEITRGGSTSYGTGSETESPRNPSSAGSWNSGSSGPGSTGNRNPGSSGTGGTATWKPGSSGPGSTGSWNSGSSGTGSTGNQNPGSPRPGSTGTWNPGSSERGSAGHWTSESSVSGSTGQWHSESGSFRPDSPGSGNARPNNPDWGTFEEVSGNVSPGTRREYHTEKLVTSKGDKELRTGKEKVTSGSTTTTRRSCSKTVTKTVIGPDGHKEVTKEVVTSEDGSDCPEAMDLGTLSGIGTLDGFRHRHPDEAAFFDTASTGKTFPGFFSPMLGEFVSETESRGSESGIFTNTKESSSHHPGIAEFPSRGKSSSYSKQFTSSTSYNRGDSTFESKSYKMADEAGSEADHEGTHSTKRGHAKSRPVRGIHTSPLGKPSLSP
T1 sequence (P02675 45-491 limits assumed): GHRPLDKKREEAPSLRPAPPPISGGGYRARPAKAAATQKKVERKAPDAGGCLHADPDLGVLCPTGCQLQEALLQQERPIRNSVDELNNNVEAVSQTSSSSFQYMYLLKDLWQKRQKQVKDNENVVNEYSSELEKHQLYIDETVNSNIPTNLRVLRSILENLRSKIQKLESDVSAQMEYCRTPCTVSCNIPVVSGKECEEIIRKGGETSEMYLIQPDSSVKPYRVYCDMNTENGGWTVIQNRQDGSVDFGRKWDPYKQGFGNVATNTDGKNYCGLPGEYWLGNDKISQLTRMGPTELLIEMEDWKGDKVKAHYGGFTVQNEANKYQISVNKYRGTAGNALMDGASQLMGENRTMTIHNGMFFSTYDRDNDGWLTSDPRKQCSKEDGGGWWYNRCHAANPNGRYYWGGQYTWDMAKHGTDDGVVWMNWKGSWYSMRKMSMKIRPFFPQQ
T1 sequence (P02679 27-437 isoform P02679-2 limits assumed): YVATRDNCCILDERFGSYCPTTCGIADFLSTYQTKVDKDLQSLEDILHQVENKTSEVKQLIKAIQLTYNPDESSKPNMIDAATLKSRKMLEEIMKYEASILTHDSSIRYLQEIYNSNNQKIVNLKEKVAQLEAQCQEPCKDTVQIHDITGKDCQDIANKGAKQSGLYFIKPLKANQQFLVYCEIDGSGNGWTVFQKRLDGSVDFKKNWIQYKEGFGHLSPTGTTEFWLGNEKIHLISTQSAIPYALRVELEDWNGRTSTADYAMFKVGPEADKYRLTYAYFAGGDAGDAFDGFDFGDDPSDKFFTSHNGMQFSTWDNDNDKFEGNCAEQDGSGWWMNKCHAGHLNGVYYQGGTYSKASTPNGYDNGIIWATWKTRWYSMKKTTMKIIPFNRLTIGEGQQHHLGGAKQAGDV
Protocol: Incorporation of radiolabelled substrates into fibrin was investigated by induction of an in vitro human plasma clot in the following manner. To a siliconised 5 ml glass vial was added, (a) 800 μl of Tris(hydroxymethyl)aminomethane buffered saline pH 7.5 containing calcium chloride (50 mM Tris, 150 mM sodium chloride, 4 mM calcium chloride.), (b) about 40 μl of physiological salt solution containing 100 units of thrombin per ml, (c) about 400 μl of human plasma containing the radiolabelled substrate at a concentration of typically 10 kBq/ml. To aid induction of clot a roughened glass rod was added to the reaction vial. Control vials were prepared similarly but with the omission of thrombin and calcium chloride.
After incubation of the test solution at ambient laboratory temperature (ca. 20° C.) for 60 minutes the reaction was discontinued with the addition of about 400 μl of a cold solution of 33.5 mM ethylenediaminetetra-acetic acid disodium salt. Clots were separated from serum by vacuum filtration onto […] nitrocellulose filters (pre-soaked in 1.5% BSA/tris(hydroxymethyl)aminoethae buffered saline pH 7.5 containing 0.1% Tween 20) and washed with about 2×10 ml of tris(hydroxymethyl)aminomethane buffered saline pH 7.5 containing Tween 20 to a final concentration of 0.1% v/v. The proportion of total radioactivity was calculated by counting in suitable detection apparatus.
The fraction of radioactivity retained on the filter, after subtraction of the non-specific binding determined from the control, is a measure of incorporation into the filtered clots.

[2] = Incorporation into clots induced in a rat model (rat inferior vena cava model); format: in vivo, rat (Male Wistar); details: for % id/g (clot) / Rel. Conc. (cpm/g of clot by dose/g animal): sacrificed after 60 min
Protocol: The rats (Male Wistar, 250–350 g) were anaesthetised with 15% urethane. After laparotomy, the vena cava was isolated and freed of surrounding fat tissue. […] The compounds were injected 5 min (fresh clot) and 60 min (aged clot) post-induction. After 60 min the animals were sacrificed and the clot removed, weighed and counted. Other tissues e.g. blood, lung, heart, were also dissected and counted. The uptake of tracer into the clot was determined as the relative concentration (cpm/g of clot by dose/g animal) and clot to background tissue.

[3] = Aged Clots: injected 60 min post-induction
[4] = Fresh Clots: injected 5 min post-induction

Substance	% specific uptake [1] [%]	% retained (no thrombin) [1] [%]	% retained (with thrombin) [1] [%]	Clot/blood ([2]; Aged Clots)	Clot/heart ([2]; Aged Clots)	Clot/liver ([2]; Aged Clots)	Clot/lung ([2]; Aged Clots)	% id/g (clot) [2, 3] [% id/g]	Rel. Conc. (cpm/g of clot by dose/g animal) [2, 3]	Clot/blood ([2]; Fresh Clots)	Clot/heart ([2]; Fresh Clots)	Clot/liver ([2]; Fresh Clots)	Clot/lung ([2]; Fresh Clots)	% id/g (clot) [2, 4] [% id/g]	Rel. Conc. (cpm/g of clot by dose/g animal) [2, 4]
Ac-NQEQVSP(pBr-F)TLLKG-Pn216 [^99mTc-Cmpd 21]	60.1	0.5	60.6	31	32	31	13	2.7 ± 2.3	8.5 ± 6.8	11	28	13	16	2.3 ± 1.3	7.4 ± 4.0
Ac-NQEQVSP-Nal(2)-TLLKG-Pn216 [^99mTc-Cmpd 20]	62.4	2.6	65.0	10	36	23	14	1.7 ± 0.5	4.9 ± 1.4	12	30	18	11	2.3 ± 0.6	6.5 ± 1.3
Ac-NQEQVSP(I-Y)TLLKG-Pn216 [^99mTc-Cmpd 22]	58.7	0.3	59.0	11	3	4	1	6.9 ± 2.5	22.7 ± 7.4	11	28	25	13	3.8 ± 1.6	13.0 ± 5.5
Z-NQEQVSPYTLLKG-Pn216 ({code Z}-NQEQVSPYTLLKG-Pn216; reading uncertain; also: 99mTc complex, printed as Z-NQEQVSPYTLLKG-Pn216) [^99mTc-Cmpd 8]	24.5	1.4	25.9	10	24	16	9	5.3 ± 1.3	16.4 ± 4.3	14	41	21	18	6.7 ± 1.7	21.0 ± 6.8
Ac-NQEQVSPYTLL(D-K)G-Pn216 [^99mTc-Cmpd 28]	41.9	0.2	42.1	17	3	1	2	4.5 ± 1.1	13.1 ± 3.4	13	31	35	19	3.5 ± 2.0	9.7 ± 5.0
Ac-NQQQVSPYTLLKG-Pn216 (also: 99mTc complex) [^99mTc-Cmpd 15]	55.2	0.4	55.6	3	1		0.6	3.4 ± 0.6	7.6 ± 1.6	4	12	11	6	3.6 ± 1.0	8.3 ± 2.2

Continued, in another order:

% specific uptake [1] [%]	% retained (no thrombin) [1] [%]	% retained (with thrombin) [1] [%]	Substance	Clot/blood ([2]; Aged Clots)	Clot/heart ([2]; Aged Clots)	Clot/liver ([2]; Aged Clots)	Clot/lung ([2]; Aged Clots)	% id/g (clot) [2, 3] [% id/g]	Rel. Conc. (cpm/g of clot by dose/g animal) [2, 3]	Clot/blood ([2]; Fresh Clots)	Clot/heart ([2]; Fresh Clots)	Clot/liver ([2]; Fresh Clots)	Clot/lung ([2]; Fresh Clots)	% id/g (clot) [2, 4] [% id/g]	Rel. Conc. (cpm/g of clot by dose/g animal) [2, 4]
21.0	0.1	21.1	Ac-NQEQVSP(D-Y)TLL(D-K)G-Pn216 [^99mTc-Cmpd 29]	11	67	29	30	3.8 ± 0.4	10.0 ± 1.7	14	44	44	20	4.7 ± 1.9	13.0 ± 4.9
14.0	0.2	14.2	Z-NQEQVSPYAAAAG-Pn216 ({code Z}-NQEQVSPYAAAAG-Pn216; reading uncertain; also: 99mTc complex, printed as Z-NQEQVSPYAAAAG-Pn216) [^99mTc-Cmpd 42]	5	21	6	7	0.4 ± 0.1	1.3 ± 0.3	2	1	63	0.3	0.3 ± 0.1	0.3 ± 0.2
38.4	0.2	38.6	Ac-NQEQVSPYTLLKG-NH2 [^123I-Cmpd 2]	24	23	20	12	5.5 ± 1.7	14.5 ± 3.9	7	19	21	10	4.9 ± 0.8	14.5 ± 2.2
23.0	0.1	23.1	Pn216-CO(CH2)3CO-NQEQVSPYTLLKG-NH2 ({Pn216-Glutaryl}-NQEQVSPYTLLKG-NH2; also: 99mTc complex) [^99mTc-Cmpd 39]	15	43	11	12	2.4 ± 0.3	8.2 ± 1.1	9	29	31	14	2.5 ± 0.3	9.0 ± 1.1
